# Reference: patent US12043600B2, “Microbiocidal compounds” (SYNGENTA CROP PROTECTION AG, priority 2018, dated 2024)
# Like-named read-outs stand apart in the source and are kept apart here.
# Legend:
# [1] = tested on: Glomerella lagenarium (Colletotrichum lagenarium); test: Glomerella lagenarium (Colletotrichum lagenarium)/Liquid Culture (Anthracnose); type: cell-based; details: Colletotrichum orbiculare, liquid culture, compared to untreated control
# Plasmopara viticola = test: whole plant or invertebrate; type: in vivo; details: foliar, read-out: control of Plasmopara viticola
# [2] = tested on: Botryotinia fuckeliana (Botrytis cinerea); test: Botryotinia fuckeliana (Botrytis cinerea)/Liquid Culture (Gray Mould); type: cell-based; details: liquid culture, compared to untreated control
# Procedure: Conidia of the fungus from cryogenic storage are directly mixed into nutrient broth (Vogels broth). After placing a (DMSO) solution of test compound into a microtiter plate (96-well format), the nutrient broth containing the fungal spores is added.
# Phytophthora infestans = test: whole plant or invertebrate; type: in vivo; details: in Solanum lycopersicum, foliar, read-out: control of Phytophthora infestans
# [3] = tested on: Puccinia recondita f. sp. tritici; test: Puccinia recondita f. sp. tritici/Wheat/Leaf Disc Curative (Brown Rust); type: in vivo; details: foliar, wheat leaf disc curative, compared to untreated control
# Outline: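 Formulated compound, diluted in water, is applied to inoculated wheat cv. Kanzler leaf segments on agar one day post-inoculation (pre-incubation dark, 19° C, 75% rh). After 6-8 days at 19° C, 75% rh and 12 h/12 h light, activity is rated as percent disease control relative to untreated segments.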
# [4] = tested on: Magnaporthe grisea (Pyricularia oryzae); test: whole plant or invertebrate; type: in vivo; details: foliar, read-out: control of Magnaporthe grisea
# [5] = tested on: Mycosphaerella arachidis (Cercospora arachidicola); test: Mycosphaerella arachidis (Cercospora arachidicola)/Liquid Culture (Early Leaf Spot); type: cell-based; details: liquid culture, compared to untreated control
# Outline: (§1)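 Liquid-culture format using potato dextrose broth inoculated directly with cryopreserved conidia, dosed with compound from a DMSO solution.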
# [6] = tested on: Puccinia recondita f. sp. tritici; test: Puccinia recondita f. sp. tritici/Wheat/Leaf Disc Preventative (Brown Rust); type: in vivo; details: foliar, 200 ppm, wheat leaf disc preventative, compared to untreated control, read-out: control of Puccinia recondita f. sp. tritici
# [7] = tested on: Monographella nivalis (Microdochium nivale); test: Monographella nivalis (Microdochium nivale)/Liquid Culture (Foot Rot Cereals); type: cell-based; details: liquid culture, compared to untreated control
# Outline: as §1
# Pythium ultimum = test: Pythium ultimum/Liquid Culture (Seedling Damping Off); type: cell-based; details: Globisporangium ultimum, liquid culture, compared to untreated control
# Procedure: Mycelia fragments and oospores of a newly grown liquid culture of the fungus are directly mixed into nutrient broth (PDB potato dextrose broth). After placing a (DMSO) solution of test compound into a microtiter plate (96-well format), the nutrient broth containing the fungal mycelia/spore mixture is added.
# [8] = tested on: Mycosphaerella graminicola (Septoria tritici); test: Mycosphaerella graminicola (Septoria tritici)/Liquid Culture (Septoria Blotch); type: cell-based; details: Zymoseptoria tritici; 20 ppm; liquid culture; compared to untreated control
# Outline: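 Results given as % disease control: test compound in DMSO was placed in wells first, then potato dextrose broth carrying cryostored fungal conidia was added.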
# [9] = tested on: Phaeosphaeria nodorum (Septoria nodorum); test: Phaeosphaeria nodorum (Septoria nodorum)/Wheat/Leaf Disc Preventative (Glume Blotch); type: in vivo; details: Parastagonospora nodorum, foliar, wheat leaf disc preventative, compared to untreated control
# Outline: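 Preventative test: compound spray first, then spore inoculation after 2 days on cv. Kanzler wheat leaf segments. Incubation in a climate cabinet at 20 °C and 75% rh under a 12 h light/12 h dark cycle. Activity rated as % control relative to untreated discs at 5–7 days post-application.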
# [10] = tested on: Blumeria graminis f. sp. tritici (Erysiphe graminis f. sp. tritici); test: Blumeria graminis f. sp. tritici/Wheat/Leaf Disc Preventative (Powdery Mildew on Wheat); type: in vivo; details: foliar, wheat leaf disc preventative, compared to untreated control
# Outline: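 Preventative leaf-disc test: percent disease control versus untreated leaf segments read 6-8 days post-application. Compound spray applied to wheat cv. Kanzler segments on agar one day before shaking infected plants over them; incubation at 20° C and 60% rh, 24 h darkness then 12 h light/12 h dark cycles.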
# Phakopsora pachyrhizi = test: Phakopsora pachyrhizi/Soybean/Preventative (Soybean Rust); type: in vivo; details: 288 h
# Alternaria solani = test: Alternaria solani/Tomato/Leaf Disc (Early Blight); type: in vivo; details: foliar, tomato leaf disc, compared to untreated control
# Outline: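 Protective leaf-disc test: compound sprayed onto tomato cv. Baby disks, spore inoculation following after 2 days. Disks kept at 80% rh, 12/12 h light/dark, 23° C. day and 21° C. night; activity read as percent disease control relative to untreated checks 5-7 days post-application.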
# [11] = tested on: Thanatephorus cucumeris (Rhizoctonia solani); test: Thanatephorus cucumeris (Rhizoctonia solani)/Liquid Culture (Foot Rot, Damping-Off); type: cell-based; details: liquid culture, compared to untreated control
# Procedure: Mycelia fragments of a newly grown liquid culture of the fungus are directly mixed into nutrient broth (PDB potato dextrose broth). After placing a (DMSO) solution of the test compounds into a microtiter plate (96-well format), the nutrient broth containing the fungal material is added.
# Pyrenophora teres = test: Pyrenophora teres/Barley/Leaf Disc Preventative (Net Blotch); type: in vivo; details: foliar, 200 ppm, barley leaf disc preventative, compared to untreated control, read-out: control of Pyrenophora teres
# Outline: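 Preventative leaf-disc test: inoculation with fungal spores took place 2 days after spraying segments of barley cv. Hasso, placed on agar, with water-diluted formulated compound. Read-out is % disease control per compound.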
# Sclerotinia sclerotiorum = test: Sclerotinia sclerotiorum/Liquid Culture (Cottony Rot); type: cell-based; details: liquid culture, compared to untreated control
# Procedure: Mycelia fragments of a newly grown liquid culture of the fungus are directly mixed into nutrient broth (PDB potato dextrose broth). After placing a (DMSO) solution of test compound into a microtiter plate (96-well format) the nutrient broth containing the fungal material is added.
# [12] = Photostability assay (Atlas Suntest); type: physicochemical; details: Suntest 750 W/m^2, spotted on microscope slides
# Procedure: The testing method to measure the photostability data of each compound in table is D1 is as specifically described below. The objective of the photostability assay was to determine the stability of the individual test compounds in a strictly controlled and reproducible environment allowing a comparison of their photostability.
# Method: Compounds were dissolved in methanol (HPLC grade) to give 1 g/L stock solutions. Compound stock solution (2 μl) was spotted onto microscope slides in a 3D printed holder and put into the Atlas Suntest. The spectral output power of the Suntest was set to 750 W/m^2, which is considered typical of the daily maximum (noon) irradiance level on a very bright British Summer day. At specific time points slides were removed from the Suntest and placed in 4D vials. Wash solvent made up of 50:40:10 H2O:MeCN:THF (1 mL) is then added to the vials and whirlimixed. The resulting solution is then subsampled to an HPLC vial to be analysed. A Waters UPLC system with Photodiode Array was used with a Waters reverse phase column (BEH C18, 100×2.1 mm×1.7 μm) and acetonitrile (HPLC grade) acidified water (0.2% formic acid) mobile phase at a flow rate of 0.6 mL/min. Peak detection was at the optimum wavelength and peak areas were used for quantification
# Initial and subsequent measurements of peak area attributable to the test compound were used to provide a % parent remaining at 3 hours.
# [13] = foliar, soybean leaf disc preventative, compared to untreated control, read-out: control of Phakopsora pachyrhizi
SMILES,inhibition of growth at 20 ppm [1],pest or weed control at 200 ppm (Plasmopara viticola),inhibition of growth at 20 ppm [2],pest or weed control at 200 ppm (Phytophthora infestans),pest or weed control at 200 ppm [3],pest or weed control at 200 ppm [4],inhibition of growth at 20 ppm [5],pest or weed control at 200 ppm [6],inhibition of growth at 20 ppm [7],inhibition of growth at 20 ppm (Pythium ultimum),inhibition of growth at 20 ppm [8],pest or weed control at 200 ppm [9],melting point,pest or weed control at 200 ppm [10],pest or weed control at 200 ppm (Phakopsora pachyrhizi; [13]),pest or weed control at 200 ppm (Alternaria solani),other results
"CO/C=C(\Oc1cc(-n2ccc(C3CCCC3)n2)ccc1C)C(=O)OC [Compound E-5, methyl (Z)-2-[5-(3-cyclopentylpyrazol-1-yl)-2-methyl-phenoxy]-3-methoxy-prop-2-enoate]",≥ 80%,≥ 80%,≥ 80%,≥ 80%,≥ 80%,≥ 80%,≥ 80%,≥ 80%,≥ 80%,≥ 80%,≥ 80%,–,–,–,–,–,–
"CO/C=C(\Oc1cc(-n2ccc(C(C)C)n2)cc(F)c1C)C(=O)OC [Compound E-7, methyl (Z)-2-[3-fluoro-5-(3-isopropylpyrazol-1-yl)-2-methyl-phenoxy]-3-methoxy-prop-2-enoate]",≥ 80%,≥ 80%,–,≥ 80%,≥ 80%,≥ 80%,≥ 80%,≥ 80%,≥ 80%,≥ 80%,≥ 80%,≥ 80%,114 to 116 °C,≥ 80%,≥ 50%,–,–
"CO/C=C(\Oc1cc(-n2ccc(C(C)C)n2)cc(OC)c1C)C(=O)OC [Compound E-21, methyl (Z)-2-[5-(3-isopropylpyrazol-1-yl)-3-methoxy-2-methyl-phenoxy]-3-methoxy-prop-2-enoate]",≥ 80%,≥ 80%,–,≥ 80%,≥ 80%,–,≥ 80%,≥ 80%,≥ 80%,≥ 80%,≥ 80%,–,90 to 92 °C,–,–,≥ 80%,–
"CO/C=C(\Oc1cc(-n2ccc(C3(F)CC3)n2)ccc1C)C(=O)OC [Compound E-67, methyl (Z)-2-[5-[3-(1-fluorocyclopropyl)pyrazol-1-yl]-2-methyl-phenoxy]-3-methoxy-prop-2-enoate]",≥ 80%,≥ 80%,–,≥ 80%,≥ 80%,–,≥ 80%,≥ 80%,≥ 80%,–,≥ 80%,≥ 80%,128 to 131 °C,≥ 80%,–,≥ 80%,inhibition of growth at 20 ppm [11]: ≥ 80%; pest or weed control at 200 ppm (Pyrenophora teres): ≥ 80%; inhibition of growth at 20 ppm (Sclerotinia sclerotiorum): ≥ 80%; % Parent Remaining @ 3 hrs [12]: 37%
"CO/C=C(\Oc1cc(-n2cc(C3CCC3)cn2)ccc1C)C(=O)OC [Compound E-80, methyl (Z)-2-[5-(4-cyclobutylpyrazol-1-yl)-2-methyl-phenoxy]-3-methoxy-prop-2-enoate]",≥ 80%,≥ 80%,≥ 80%,≥ 80%,≥ 80%,≥ 80%,≥ 80%,≥ 80%,≥ 80%,≥ 80%,≥ 80%,–,–,≥ 80%,≥ 50%,≥ 80%,–
"CO/C=C(\Oc1cc(-n2ccc(C(C)C)n2)ccc1C)C(=O)OC [Compound E-92, methyl (Z)-2-[5-(3-isopropylpyrazol-1-yl)-2-methyl-phenoxy]-3-methoxy-prop-2-enoate]",≥ 80%,≥ 80%,≥ 80%,≥ 80%,–,≥ 80%,≥ 80%,–,≥ 80%,≥ 80%,≥ 80%,≥ 80%,88 to 91 °C,≥ 80%,–,–,"pest or weed control at 0.6 ppm (Phakopsora pachyrhizi; Phakopsora pachyrhizi (Soybean rust), 0.6 ppm): 0%; pest or weed control at 2 ppm (Phakopsora pachyrhizi; Phakopsora pachyrhizi (Soybean rust), 2 ppm): 0%; pest or weed control at 6 ppm (Phakopsora pachyrhizi; Phakopsora pachyrhizi (Soybean rust), 6 ppm): 35%; pest or weed control at 20 ppm (Phakopsora pachyrhizi; Phakopsora pachyrhizi (Soybean rust), 20 ppm): 90%; pest or weed control at 60 ppm (Phakopsora pachyrhizi; Phakopsora pachyrhizi (Soybean rust), 60 ppm): 100%; pest or weed control at 200 ppm (Phakopsora pachyrhizi; Phakopsora pachyrhizi (Soybean rust), read-out: control (%)): 100%; % Parent Remaining @ 3 hrs [12]: 33%"
"CO/C=C(\Oc1cc(-n2ccc(C(C)(C)C)n2)ccc1C)C(=O)OC [Compound E-103, methyl (Z)-2-[5-(3-tert-butylpyrazol-1-yl)-2-methyl-phenoxy]-3-methoxy-prop-2-enoate]",≥ 80%,≥ 80%,≥ 80%,≥ 80%,≥ 80%,≥ 80%,≥ 80%,≥ 80%,≥ 80%,≥ 80%,≥ 80%,≥ 80%,–,≥ 80%,≥ 50%,–,–
"CO/C=C(\Oc1cccc(-n2ncc(C3CC3)n2)c1)C(=O)OC [Compound F-9, methyl (Z)-2-[3-(4-cyclopropyltriazol-2-yl)phenoxy]-3-methoxy-prop-2-enoate]",≥ 80%,≥ 80%,–,≥ 80%,≥ 80%,–,≥ 80%,≥ 80%,≥ 80%,≥ 80%,≥ 80%,–,–,≥ 80%,–,–,–
